{
  "source": "patent US20260232578A1",
  "about": "“COMPOSITIONS AND METHODS FOR TRANSMUCOSAL ABSORPTION” (Tonix Pharma Limited, priority 2012, published 2026)",
  "key": {"[1]": {"conditions": "humans, cited from earlier work"}, "[2]": {"conditions": "Beagle; for plasma level adjusted to 0.14 mg/kg: Hucker IV", "procedure": "Doses were expressed as free base, and so should be adjusted by MW Free Base 275 g/mole/MW HCl salt 312 g/mole. […] In our Beagle studies, the dose was 0.14 mg/kg, which is approximately 1/12.6 the dose of the Hucker studies."}, "[3]": {"conditions": "cited from earlier work"}, "[4]": {"conditions": "humans, cited from earlier work", "remark": "listed apart in the source"}, "[5]": {"experiment": "Pharmacokinetics of sublingual cyclobenzaprine HCl tablets with and without K2HPO4 (Example 10)", "assay_type": "in vivo, beagle dog", "conditions": "2.4 mg sublingual tablet with basifying agent", "procedure": "Pharmacokinetic parameters were then calculated and compared.\nFor sublingual dosing, dogs were given propofol and were put in a lying position (ventral decubitis). The mouth was gently opened and the tablet was placed under the tongue. The tongue was then immediately replaced in its initial position and the mouth was closed. The dog was left in the same position until waking. […] After the washout period of two weeks, dogs were sedated in the same way and given a single sublingual dose of the formulation without basifying agent. Blood samples after both types of treatment were taken pre-dose and at 5, 10, 20, 30, and 45 minutes, and at 1, 2, 3, 4, 6, 8, and 10 hours after dose administration. Blood was taken from the jugular vein.\nThe method involved liquid-liquid extraction with hexane. The extracts were injected using an HPLC system and an API4000® (Applied Biosystems) for MS/MS detection, with an “Onyx monolithic Phenomenex C18 100×3.0 mm” column.\nSublingual administration was performed by placing the control tablet or tablet with K2HPO4 under the tongue when female beagles were slightly anesthetized with propofol."}, "in vivo": {"experiment": "in vivo", "conditions": "beagle, dog", "procedure": "Each dog was sampled at pre-dose before and after Propofol (when possible) and at 5, 10 and 20 minutes post-dose."}, "muscarinic M2 receptor": {"biological_target": "muscarinic M2 receptor (Homo sapiens, UniProt P08172)", "sequence (P08172 whole entry)": "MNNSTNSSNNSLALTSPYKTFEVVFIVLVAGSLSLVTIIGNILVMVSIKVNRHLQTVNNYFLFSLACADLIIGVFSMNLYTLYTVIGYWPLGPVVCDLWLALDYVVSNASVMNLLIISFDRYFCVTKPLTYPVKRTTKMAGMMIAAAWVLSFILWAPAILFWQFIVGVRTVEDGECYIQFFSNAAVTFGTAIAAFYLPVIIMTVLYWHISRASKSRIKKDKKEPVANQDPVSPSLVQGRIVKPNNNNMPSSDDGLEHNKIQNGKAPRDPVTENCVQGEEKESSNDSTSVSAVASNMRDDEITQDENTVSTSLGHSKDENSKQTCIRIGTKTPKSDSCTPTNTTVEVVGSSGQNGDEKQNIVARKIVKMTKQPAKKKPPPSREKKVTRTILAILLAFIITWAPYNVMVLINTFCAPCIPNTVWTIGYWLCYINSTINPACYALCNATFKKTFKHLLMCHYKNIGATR", "experiment": "G-protein-dependent signal transduction, intracellular Ca2+ mobilization"}, "[6]": {"conditions": "2.5 mg immediate release tablets (Winchell)"}, "[7]": {"conditions": "5.0 mg immediate release tablets (Winchell)"}, "[8]": {"conditions": "10 mg immediate release tablets (Winchell)"}},
  "note": "Like-named read-outs stand apart in the source and are kept apart here.",
  "data": [
    {"smiles": "CN(C)CCC=C1c2ccccc2C=Cc2ccccc21", "note": "[cyclobenzaprine, 3-(5H-dibenzo[a,d]cyclohepten-5-ylidene)-N,N-dimethyl-1-propanamine]", "values": [
      {"measurement": "upper limit for the half-life of the first phase (distribution out of plasma)", "setting": "[1]; IV bolus", "value": "3 to 5", "unit": "min"},
      {"measurement": "amount in plasma as % of the theoretical initial concentration (Cinit)", "setting": "[1]; within 3 to 30 minutes after IV bolus", "value": "less than 5%"},
      {"measurement": "plasma level adjusted to 0.14 mg/kg", "setting": "[2]; 0.5 h", "value": 34.1, "unit": "ng/mL"},
      {"measurement": "plasma level adjusted to 0.14 mg/kg", "setting": "[2]; 2 hours", "value": 47.6, "unit": "ng/mL"},
      {"measurement": "plasma level adjusted to 0.14 mg/kg", "setting": "[2]; 6 h", "value": 35.7, "unit": "ng/mL"},
      {"measurement": "peak plasma level adjusted to 0.14 mg/kg", "setting": "[2]; Hucker PO gelatin capsule, at 2 hours", "value": 115.9, "unit": "ng/mL"},
      {"measurement": "plasma level (radioactive equivalents)", "setting": "[3]; Beagles, 1.76 mg/kg by mouth, 1 hr (Hucker)", "value": "1.14 μg/ml [equivalent]"},
      {"measurement": "plasma level (radioactive equivalents)", "setting": "[3]; Beagles, 1.76 mg/kg by mouth, 2 hr (Hucker)", "value": "1.46 μg/ml [equivalent]"},
      {"measurement": "plasma level (radioactive equivalents)", "setting": "[3]; Beagles, 1.76 mg/kg by mouth, 4 hr (Hucker)", "value": "0.92 μg/ml [equivalent]"},
      {"measurement": "plasma level (radioactive equivalents)", "setting": "[3]; Beagles, 1.76 mg/kg by mouth, 6 hr (Hucker)", "value": "0.58 μg/ml [equivalent]"},
      {"measurement": "plasma level (radioactive equivalents)", "setting": "[3]; Beagles, 1.76 mg/kg by mouth, 24 hr (Hucker)", "value": "0.10 μg/ml [equivalent]"},
      {"measurement": "plasma level (radioactive equivalents)", "setting": "[3]; Beagles, 1.76 mg/kg cyclobenzaprine HCl by mouth, 0.5 h (Hucker)", "value": "0.72 μg/ml [equivalent]"},
      {"measurement": "plasma level, Hucker dose adjusted for 0.14 mg/kg", "setting": "[3]; IV (saline), t 0.5 h", "value": 34.1, "unit": "ng/mL"},
      {"measurement": "plasma level, Hucker dose adjusted for 0.14 mg/kg", "setting": "[3]; IV (saline), t 1 h", "value": 42.1, "unit": "ng/mL"},
      {"measurement": "plasma level, Hucker dose adjusted for 0.14 mg/kg", "setting": "[3]; IV (saline), t 2 h", "value": 47.6, "unit": "ng/mL"},
      {"measurement": "plasma level, Hucker dose adjusted for 0.14 mg/kg", "setting": "[3]; IV (saline), t 4 h", "value": 43.7, "unit": "ng/mL"},
      {"measurement": "plasma level, Hucker dose adjusted for 0.14 mg/kg", "setting": "[3]; IV (saline), t 6 h", "value": 35.7, "unit": "ng/mL"},
      {"measurement": "plasma level, Hucker dose adjusted for 0.14 mg/kg", "setting": "[3]; IV (saline), t 24 h", "value": 9.5, "unit": "ng/mL"},
      {"measurement": "plasma level, Hucker dose adjusted for 0.14 mg/kg", "setting": "[3]; PO (gelatin capsule), t 0.5 h", "value": 57.1, "unit": "ng/mL"},
      {"measurement": "plasma level, Hucker dose adjusted for 0.14 mg/kg", "setting": "[3]; PO (gelatin capsule), t 1 h", "value": 90.5, "unit": "ng/mL"},
      {"measurement": "plasma level, Hucker dose adjusted for 0.14 mg/kg", "setting": "[3]; PO (gelatin capsule), t 2 h", "value": 115.9, "unit": "ng/mL"},
      {"measurement": "plasma level, Hucker dose adjusted for 0.14 mg/kg", "setting": "[3]; PO (gelatin capsule), t 4 h", "value": 73.0, "unit": "ng/mL"},
      {"measurement": "plasma level, Hucker dose adjusted for 0.14 mg/kg", "setting": "[3]; PO (gelatin capsule), t 6 h", "value": 46.0, "unit": "ng/mL"},
      {"measurement": "plasma level, Hucker dose adjusted for 0.14 mg/kg", "setting": "[3]; PO (gelatin capsule), t 24 h", "value": 7.9, "unit": "ng/mL"},
      {"measurement": "plasma level (radioactive equivalents)", "setting": "[3]; dogs, 2 mg/kg intravenous in saline, 0.5 h (Hucker)", "value": "0.43 μg/ml [equivalent]"},
      {"measurement": "plasma level (radioactive equivalents)", "setting": "[3]; dogs, 2 mg/kg intravenous in saline, 1 hr (Hucker)", "value": "0.53 μg/ml [equivalent]"},
      {"measurement": "plasma level (radioactive equivalents)", "setting": "[3]; dogs, 2 mg/kg intravenous in saline, 2 hr (Hucker)", "value": "0.60 μg/ml [equivalent]"},
      {"measurement": "plasma level (radioactive equivalents)", "setting": "[3]; dogs, 2 mg/kg intravenous in saline, 4 hr (Hucker)", "value": "0.55 μg/ml [equivalent]"},
      {"measurement": "plasma level (radioactive equivalents)", "setting": "[3]; dogs, 2 mg/kg intravenous in saline, 6 hr (Hucker)", "value": "0.45 μg/ml [equivalent]"},
      {"measurement": "plasma level (radioactive equivalents)", "setting": "[3]; dogs, 2 mg/kg intravenous in saline, 24 hr (Hucker)", "value": "0.12 μg/ml [equivalent]"},
      {"measurement": "AUC0-8 h", "setting": "[4]; [6]", "value": 11.1, "unit": "ng·h/mL"},
      {"measurement": "AUC0-∞h", "setting": "[4]; [6]", "value": 44.2, "unit": "ng·h/mL"},
      {"measurement": "AUC0-8 h", "setting": "[4]; [7]", "value": 23.0, "unit": "ng·h/mL"},
      {"measurement": "AUC0-∞h", "setting": "[4]; [7]", "value": 89.5, "unit": "ng·h/mL"},
      {"measurement": "AUC0-8 h", "setting": "[4]; [8]", "value": 45.9, "unit": "ng·h/mL"},
      {"measurement": "AUC0-∞h", "setting": "[4]; [8]", "value": 178.2, "unit": "ng·h/mL"},
      {"measurement": "dbmnAUC0-0.75 h", "setting": "[5]; Beagles 12.5 kg", "value": 0.000708, "unit": "kg·h/mL"},
      {"measurement": "dnAUC0-0.75 h", "setting": "[5]; Beagles", "value": "5.65e-05", "unit": "h/mL"},
      {"measurement": "bioavailability, sublingual vs IV calculated in the same condition", "setting": "in vivo", "value": "about 200%"}
    ]},
    {"smiles": "CNCCC=C1c2ccccc2C=Cc2ccccc21", "note": "[norcyclobenzaprine, 3-(5H-dibenzo[a,d]cyclohepten-5-ylidene)-N-methyl-1-propanamine]", "values": [
      {"measurement": "IC50", "setting": "muscarinic M2 receptor", "value": 33, "unit": "nM"}
    ]}
  ]
}
